Test results from patent US20130190407A1, “CALCIUM RECEPTOR-ACTIVE MOLECULES” (NPS Pharmaceuticals, Inc., priority 1991, published 2013).
pEC50: −log10 of the molar value.

How the values were obtained:
Format in all cases: cell-based
[1] = target: T1, bovine parathyroid cell calcium receptor (Bos taurus, UniProt P35384); experiment: Cl- current in Xenopus oocytes injected with BoPCaR 1; conditions: 1 mM extracellular Ca2+
T1 construct: isolation of a single clone (BoPCaR 1) with a cDNA insert of 5.3 kb; expressed in transfected cells
T1 sequence (P35384 20-1085): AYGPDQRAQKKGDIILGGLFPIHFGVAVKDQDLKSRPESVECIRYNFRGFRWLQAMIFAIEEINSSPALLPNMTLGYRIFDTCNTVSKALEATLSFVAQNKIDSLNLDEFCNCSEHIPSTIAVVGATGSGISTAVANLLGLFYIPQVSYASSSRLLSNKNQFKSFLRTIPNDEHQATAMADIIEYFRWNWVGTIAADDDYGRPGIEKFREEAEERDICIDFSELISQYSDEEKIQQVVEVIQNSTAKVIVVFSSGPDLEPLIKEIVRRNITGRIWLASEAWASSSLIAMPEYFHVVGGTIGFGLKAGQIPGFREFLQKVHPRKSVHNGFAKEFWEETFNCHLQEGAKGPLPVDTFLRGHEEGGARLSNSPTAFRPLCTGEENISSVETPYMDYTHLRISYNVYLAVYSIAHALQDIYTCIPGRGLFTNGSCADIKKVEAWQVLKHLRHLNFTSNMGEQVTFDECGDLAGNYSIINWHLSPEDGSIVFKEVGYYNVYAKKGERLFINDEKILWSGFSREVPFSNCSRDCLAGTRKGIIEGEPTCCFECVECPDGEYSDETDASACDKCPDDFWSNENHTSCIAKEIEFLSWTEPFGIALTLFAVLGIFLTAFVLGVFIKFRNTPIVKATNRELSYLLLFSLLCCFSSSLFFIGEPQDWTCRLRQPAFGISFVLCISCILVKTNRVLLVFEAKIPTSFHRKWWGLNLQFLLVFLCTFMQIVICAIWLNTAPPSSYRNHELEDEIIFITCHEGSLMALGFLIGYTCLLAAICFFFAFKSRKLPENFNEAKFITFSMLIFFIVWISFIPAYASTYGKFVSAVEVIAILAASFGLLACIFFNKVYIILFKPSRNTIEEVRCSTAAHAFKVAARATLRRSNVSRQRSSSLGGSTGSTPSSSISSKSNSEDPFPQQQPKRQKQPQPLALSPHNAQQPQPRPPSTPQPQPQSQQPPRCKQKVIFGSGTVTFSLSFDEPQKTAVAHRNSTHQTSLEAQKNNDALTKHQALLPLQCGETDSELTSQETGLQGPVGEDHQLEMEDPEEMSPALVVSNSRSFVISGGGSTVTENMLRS
Description: Several pharmacological and biochemical criteria were used to identify this clone as encoding a bona fide bovine parathyroid Ca^2+ receptor. […] These responses increased markedly over a period of one to four days after injection of the eggs with cRNA prepared from the BoPCaR 1 cDNA. Furthermore, the ranges of the concentrations of the two cations eliciting this response were very similar to those shown previously to act on bovine parathyroid cells in vitro.
Xenopus oocytes were injected with BoPCaR 1, the 5.3 Kb cDNA encoding a bovine parathyroid cell calcium receptor as described in Example 25. After two to three days, Cl^− currents were examined in the oocytes using a two-electrode voltage clamp.
Xenopus oocytes were injected with BoPCaR 1 as described in Example 25. After two to three days, Cl^− currents were examined in the oocytes using two electrode voltage clamp.

[2] = target: T2, human parathyroid cell calcium receptor (Homo sapiens, UniProt P41180, E1011Q/Q926R); experiment: Cl- current in Xenopus oocytes injected with pHuPCaR 5.2; conditions: 3 to 30 μM; 0.3 mM extracellular Ca2+
T2 construct: appear to be full-length clones corresponding to the 5 Kb mRNA; expressed in transfected cells; host or cells: Xenopus laevis oocytes injected with pHuPCaR 5.2
T2 sequence (P41180 20-1088 isoform P41180-2 Q936R/E1021Q): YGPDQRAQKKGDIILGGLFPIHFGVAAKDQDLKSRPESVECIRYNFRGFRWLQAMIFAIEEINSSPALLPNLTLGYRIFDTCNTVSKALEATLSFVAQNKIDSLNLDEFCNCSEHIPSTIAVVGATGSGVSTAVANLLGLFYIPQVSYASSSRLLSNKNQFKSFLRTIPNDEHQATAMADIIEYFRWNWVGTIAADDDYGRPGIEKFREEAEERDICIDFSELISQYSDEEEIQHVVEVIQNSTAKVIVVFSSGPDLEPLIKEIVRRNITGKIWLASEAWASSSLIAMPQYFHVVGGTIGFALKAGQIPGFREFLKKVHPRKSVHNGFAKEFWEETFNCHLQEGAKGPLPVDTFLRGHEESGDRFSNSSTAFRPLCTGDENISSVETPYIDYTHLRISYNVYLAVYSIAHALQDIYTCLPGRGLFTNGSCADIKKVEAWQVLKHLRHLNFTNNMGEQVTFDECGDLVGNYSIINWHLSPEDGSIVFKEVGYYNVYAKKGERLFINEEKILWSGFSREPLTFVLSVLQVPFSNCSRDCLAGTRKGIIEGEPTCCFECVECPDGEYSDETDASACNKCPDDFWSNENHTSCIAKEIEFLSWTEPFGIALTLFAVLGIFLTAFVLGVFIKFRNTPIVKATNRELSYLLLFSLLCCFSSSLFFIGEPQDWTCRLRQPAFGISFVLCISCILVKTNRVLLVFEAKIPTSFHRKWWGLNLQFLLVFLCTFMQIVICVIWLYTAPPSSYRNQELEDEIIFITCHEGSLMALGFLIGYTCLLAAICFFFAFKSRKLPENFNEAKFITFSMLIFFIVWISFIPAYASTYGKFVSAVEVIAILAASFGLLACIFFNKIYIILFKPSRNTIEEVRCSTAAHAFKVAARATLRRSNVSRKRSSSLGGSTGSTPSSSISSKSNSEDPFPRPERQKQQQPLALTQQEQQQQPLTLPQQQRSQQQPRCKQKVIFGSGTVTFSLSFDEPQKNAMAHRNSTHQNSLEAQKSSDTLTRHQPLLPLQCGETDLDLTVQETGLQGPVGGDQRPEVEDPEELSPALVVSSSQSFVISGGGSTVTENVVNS
Description: Xenopus oocytes were injected with pHuPCaR 5.2, the 5.2 Kb cDNA encoding a parathyroid cell calcium receptor derived from a human parathyroid cell adenoma. (See Example 27.) After two to three days, Cl^− currents were measured in the oocytes using a two-electrode voltage clamp.

[3] = target: T3, osteoclast calcium receptor (Rattus norvegicus, UniProt P48442); experiment: [Ca2+]i (indo-1) in single rat osteoclasts; conditions: Table 6; rat osteoclasts, indo-1
T3 sequence (P48442 20-1079): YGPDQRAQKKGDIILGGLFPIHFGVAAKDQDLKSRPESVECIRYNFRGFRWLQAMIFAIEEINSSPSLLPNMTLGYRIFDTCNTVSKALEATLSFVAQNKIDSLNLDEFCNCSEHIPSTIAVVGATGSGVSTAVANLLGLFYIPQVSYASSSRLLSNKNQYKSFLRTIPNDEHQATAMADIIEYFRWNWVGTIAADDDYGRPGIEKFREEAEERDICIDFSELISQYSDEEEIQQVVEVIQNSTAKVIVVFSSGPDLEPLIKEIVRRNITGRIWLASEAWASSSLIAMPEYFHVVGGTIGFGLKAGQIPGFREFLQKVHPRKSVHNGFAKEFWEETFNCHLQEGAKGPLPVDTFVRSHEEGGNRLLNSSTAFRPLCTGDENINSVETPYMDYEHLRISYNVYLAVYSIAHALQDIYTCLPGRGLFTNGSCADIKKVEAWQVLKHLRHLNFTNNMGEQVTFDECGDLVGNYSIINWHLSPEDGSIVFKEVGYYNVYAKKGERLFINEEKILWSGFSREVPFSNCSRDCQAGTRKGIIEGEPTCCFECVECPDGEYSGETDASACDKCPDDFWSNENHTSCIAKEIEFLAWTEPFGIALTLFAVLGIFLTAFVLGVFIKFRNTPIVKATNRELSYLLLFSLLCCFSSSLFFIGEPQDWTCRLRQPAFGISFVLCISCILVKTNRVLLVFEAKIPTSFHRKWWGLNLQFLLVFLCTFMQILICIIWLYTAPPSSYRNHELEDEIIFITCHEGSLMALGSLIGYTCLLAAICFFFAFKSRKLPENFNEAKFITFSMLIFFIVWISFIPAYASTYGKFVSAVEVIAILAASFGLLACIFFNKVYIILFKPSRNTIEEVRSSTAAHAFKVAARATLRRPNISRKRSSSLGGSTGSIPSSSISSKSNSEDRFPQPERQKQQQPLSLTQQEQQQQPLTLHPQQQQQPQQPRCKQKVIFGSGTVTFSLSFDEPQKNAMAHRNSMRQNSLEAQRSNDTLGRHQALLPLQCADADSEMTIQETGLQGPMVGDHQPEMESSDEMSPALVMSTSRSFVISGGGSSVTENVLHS

Bovine parathyroid cells [4] = test system: Bovine parathyroid cells
Description: This section describes measuring cyclic AMP levels. Cells were incubated as above for PTH secretion studies and at the end of the incubation, a 0.15-ml sample was taken and transferred to 0.85 ml of hot (70° C.) water and heated at this temperature for 5-10 minutes. The tubes were subsequently frozen and thawed several times and the cellular debris sedimented by centrifugation. Portions of the supernatant were acetylated and cyclic AMP concentrations determined by radioimmunoassay.
Bovine parathyroid cells were cultured for 16 hours with or without 100 ng/ml pertussis toxin. […] Each value is the mean±SEM of three experiments.

Bovine parathyroid cells [5] = experiment: PTH secretion from bovine parathyroid cells; conditions: concentrations that mobilize intracellular Ca2+
Description: PTH secretion was measured by first suspending cells in PCB containing 0.5 mM CaCl2 and 0.1% BSA.
Counting of samples and data reduction were performed on a Packard Cobra 5005 gamma counter.

Bovine parathyroid cells [6] = experiment: Inositol phosphate formation in bovine parathyroid cells
Description: After 30 seconds, the reaction was terminated by the addition of CHCl3:MeOH:HCl and IP1 (circles) and IP3 (triangles) separated by anion exchange chromatography. Each point is the mean of 2 experiments, each performed in triplicate.
This section describes procedures measuring inositol phosphate formation. Membrane phospholipids were labeled by incubating parathyroid cells with 4 μCi/ml ^3H-myo-inositol for 20-24 hours. Cells were then washed and resuspended in PCB containing 0.5 mM CaCl2 and 0.1% BSA. Incubations were performed in microfuge tubes in the absence or presence of various concentrations of organic polycation for different times. Reactions were terminated by the addition of 1 ml chloroform-methanol-12 N HCl (200:100:1; v/v/v). Aqueous phytic acid hydrolysate (200 μl; 25 μg phosphate/tube). The tubes were centrifuged and 600 μl of the aqueous phase was diluted into 10 ml water.
Inositol phosphates were separated by ion-exchange chromatography using AG1-X8 in either the chloride- or formate-form. When only IP3 levels were to be determined, the chloride-form was used, whereas the formate form was used to resolve the major inositol phosphates (IP3, IP2, and IP1). […] The last eluate was diluted and counted. […] The eluted samples from the formate columns were rotary evaporated, the residues brought up in cocktail, and counted.

Compound	Cl- current [1]	Cl- current [2]	pEC50 [3]	cyclic AMP (% of control), control (Bovine parathyroid cells [4])	PTH secretion (Bovine parathyroid cells [5])	formation of IP3 (Bovine parathyroid cells [6])
NCCCNCCCCNCCCNCCCNCCCNC(=O)Cc1c[nH]c2ccccc12 [NPS 019]	oscillatory increases in the Cl^− current	evoked increases in the Cl^− current	< 3.52			
protamine				20 ± 4 % of control	inhibited PTH secretion to the same extent as extracellular Ca^2+	rapid (within 30 seconds) increase in the formation of IP3
